Patent publication US8106033B2, “Composition and methods for the treatment of proliferative diseases” (priority 2005, dated 2012)
“Also recorded” adds a separate entry of the source. Like-named read-outs stand apart in the source and are kept apart here.

Columns and labels:
[1] = tested on: MCF-7 tumor cells (human breast cancer cell line)
Experimental: Estradiol pellets (1 mg) were implanted interscapularly into twenty female athymic nude mice (NCR-nu/nu, Taconic) mouse. After 24 hours 1×10^7 MCF-7 tumor cells (breast cancer cell line) were implanted in the mammary fat pad of each mouse. The tumors produced by the tumor cell injections were allowed to grow for a period of 10-15 days until the tumors reached a size from 200 to 250 mm^3. The mice were then divided into four test groups (N=5) which were treated every other day by IP injections with: (a) (E)-2-(5-((2,4,6-trimethoxystyrylsulfonyl)methyl)-2-methoxyphenylamino)acetic acid sodium salt (200 mg/kg) dissolved in PBS; (b) doxorubicin (2.5 mg/kg) dissolved in PBS; (c) a combination of (E)-2-(5-((2,4,6-trimethoxystyrylsulfonyl)methyl)-2-methoxyphenylamino)acetic acid sodium salt (200 mg/kg) and doxorubicin (2.5 mg/kg) dissolved in PBS; or (d) PBS vehicle containing no drug. […] Body weights are plotted in FIG. 3(b) as the mean of the measured weights of all the animals in each dose group. Tumor volume was determined by measuring each tumor in two dimensions using traceable digital Vernier calipers. The tumor volume was calculated for each tumor using the equation: V=L×(S^2)π/6. The tumor volume is plotted in FIG. 3(a) as the mean tumor volume all animals in each particular dose group.

[2] = tested on: MCF-7 tumor cells (human breast cancer cell line); assay: Doxorubicin toxicity and lethality in MCF-7 tumor-bearing nude mice (Example 9); assay type: in vivo
Experimental: Estradiol pellets (1 mg) were implanted interscapularly into ten female athymic nude mice (NCR-nu/nu, Taconic) mouse. […] Body weights for the individual animals of group (a) are plotted in FIG. 4(a) and body weights for the individual animals of group (b) are plotted in FIG. 4(b).

[3] = tested on: BEL-7402 tumor cells (human hepatoma cell line); assay type: in vivo; conditions: BEL-7402 xenograft, IP every other day, Compound A 200 mg/kg, oxaliplatin 5 mg/kg, alone or combined
Experimental: Twenty female athymic nude mice (NCR-nu/nu, Taconic) were injected subcutaneously with 1×10^7 BEL-7402 tumor cells (human hepatoma cell line). The tumors produced by the tumor cell injections were allowed to grow for a period of 10-14 days until the tumors reached a size from 200 to 250 mm^3. The mice were then divided into four test groups (N=5) which were treated every other day by intraperitoneal (IP) injections of: (a) (E)-2-(5-((2,4,6-trimethoxystyrylsulfonyl)methyl)-2-methoxyphenylamino)acetic acid sodium salt (Compound A) (200 mg/kg) dissolved in PBS; (b) oxaliplatin (5 mg/kg); (c) a combination of (E)-2-(5-((2,4,6-trimethoxystyrylsulfonyl)methyl)-2-methoxyphenylamino)acetic acid sodium salt (200 mg/kg) dissolved in PBS and oxaliplatin (5 mg/kg), or (d) PBS vehicle containing no drug. […] Body weights are plotted in FIG. 1(b) as the mean of the measured weights of all the animals in each dose group. Tumor volume was determined by measuring each tumor in two dimensions using traceable digital Vernier calipers (Fisher Scientific International Inc., Liberty Lane, Hampton, N.H. 03842). The tumor volume was calculated for each tumor using the equation: V=L×(S^2)π/6, wherein L is the longer, and S is the shorter of the two measured dimensions. […]

[4] = tested on: DU145 tumor cells (human prostate cancer cell line); assay: DU145 tumor xenograft in nude mice (Example 7); assay type: in vivo; conditions: for effect on tumor growth (mean tumor volume): IP every other day, Compound A 200 mg/kg, oxaliplatin 5 mg/kg, alone or combined
Experimental: At this time, animals were divided into four groups (N=5) and were treated every other day by IP injections with: […] (b) oxaliplatin (5.0 mg/kg); […] All animals were examined for signs of toxicity. Tumor volumes and body weights were determined weekly. […] The tumor volume is plotted in FIG. 2 as the mean tumor volume±standard error of the mean (SEM) for all animals in each particular dose group.

[5] = MCF-7 xenograft, IP every other day, Compound A 200 mg/kg, doxorubicin 2.5 mg/kg, alone or combined

Row | Compound | effect on tumor growth (mean tumor volume) [1, 5] | tumor size when the animals had died ([1]; doxorubicin 2.5 mg/kg alone, by the 35th day) | animals with major weight loss immediately preceding death ([2]; doxorubicin 1 mg/kg IP every other day alone) | body weight change ([2]; doxorubicin 1 mg/kg IP every other day, alone or with Compound A 200 mg/kg) | survival rate ([2]; doxorubicin 1 mg/kg IP every other day, alone or with Compound A 200 mg/kg, N=5) | effect on tumor growth (mean tumor volume) ([3]; sodium salt) | survival of the animals [1, 5] | effect on tumor growth (mean tumor volume) ([1]; MCF-7 xenograft, IP every other day, Compound A 200 mg/kg, doxorubicin 2.5 mg/kg, alone or combined, sodium salt) | effect on tumor growth (mean tumor volume) [4] | time at which tumors were of comparable volume to control tumors after 28 days ([4]; single agents) | effect on tumor growth (mean tumor volume) [3]
1 | COc1cccc2c1C(=O)c1c(O)c3c(c(O)c1C2=O)C[C@@](O)(C(=O)CO)C[C@@H]3O[C@H]1C[C@H](N)[C@H](O)[C@H](C)O1 [doxorubicin] | significantly slowed the growth of the tumors | 500 mm^3 | 4 of the 5 | initial suggestive weight gain | 20% | – | – | – | – | – | –
2 | COc1cc(OC)c(/C=C/S(=O)(=O)Cc2ccc(OC)c(NCC(=O)[O-])c2)c(OC)c1.[Na+] [(E)-2-(5-((2,4,6-trimethoxystyrylsulfonyl)methyl)-2-methoxyphenylamino)acetic acid sodium salt] | – | – | – | – | – | significant greater reduction in tumor growth; also recorded: slowed the growth of the tumor | 84 days | significantly slowed the growth of the tumors; also recorded: comparable reduction in tumor growth | significant therapeutic response | 63 days | –
3 | O=C1[O][Pt]2([NH][C@@H]3CCCC[C@H]3[NH]2)[O]C1=O [oxaliplatin] | – | – | – | – | – | – | – | – | significant therapeutic response | – | significant greater reduction in tumor growth; also recorded: slowed the growth of the tumor
